A value given as a limit tells only on which side of the number the result lay.

Test [1] concerns hyper-permeable E. coli 901C. Nature of the test: Broth microdilution MIC assay, hyper-permeable E. coli. As to conditions: Escherichia coli, read-out: E. coli 901C MIC. The class given is cell-based. In short, it runs like this: (§1)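 Visual no-growth endpoint defines the MIC. Inoculum of 5×10^5 CFU/mL in divalent-cation-supplemented Mueller-Hinton broth was exposed to 2-fold dilution series of compound, then incubated 16-20 hours at 37° C per CLSI.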
A general note: In broth dilution the organism is exposed to a series of concentrations in liquid medium.

The subject of test [2] is E. coli DH5a with pLBII plasmid with no β-lactamase gene. Nature of the test: Broth microdilution MIC, engineered E. coli control strain (pLBII plasmid, no β-lactamase gene). The class given is cell-based. As to conditions: Escherichia coli, read-out: MIC, β-lactamase None. The procedure:
(§2) To determine the ability of test compounds to potentiate the inhibition of the growth of bacterial strains, classic cell based broth microdilution MIC assays were employed. MIC assays are performed according to CLSI methods except where otherwise noted (CLSI, 2011 and CLSI, 2009). The reference strain S. aureus ATCC 29213 and the hyper-permeable E. coli 901C were used to determine the ability of the PBP compounds to inhibit bacterial growth. Briefly, cryo-preserved bacterial cultures of clinical strains are streaked for isolation on appropriate agar medium, in this case Mueller Hinton II agar. Following incubation to allow formation of colonies these plates are sealed with parafilm and stored refrigerated for up to two weeks. For preparation of assay inocula and to ensure low variability, at least 5 colonies are picked from the agar plates with an inoculating loop and aseptically transferred to a culture tube containing 3 mL of Mueller-Hinton Broth (supplemented with divalent cations to required levels based on Manufacturers' certification). The broth culture is grown for 3-5 hours at 37° C. with shaking at 200 rpm. Meanwhile, 2-fold serial dilutions of test compounds are conducted in a 96 well plate with a final volume of 75 μL per well at 2-fold the final desired concentration. After the dilution plates are set up the growing cultures are then diluted in a cuvette containing MH II broth and the optical density is measured at 600 nm. Inocula are diluted such that 75 μL of this culture in Mueller-Hinton Broth results in a starting bacterial concentration of 5×10^5 CFU/mL when added to the dilution plates. The plates are incubated 16-20 hours at 37° C. The MIC is read visually as the lowest concentration well with no bacterial growth.
(§3) To determine if test compounds were affected by various known β-lactamases, the inhibition of the growth of engineered strains of Escherichia coli harboring select single β-lactamases were tested. […]

In test [3] the test system is E. coli DH5a harboring KPC-2. As to the kind of experiment: microbe, parasite or virus in culture. The format is cell-based. As to conditions: Escherichia coli, read-out: MIC, β-lactamase KPC. The procedure:
To determine the ability of test compounds to potentiate the inhibition of the growth of bacterial strains, classic cell based broth microdilution MIC assays were employed. MIC assays are performed according to CLSI methods except where otherwise noted (CLSI, 2011 and CLSI, 2009). The reference strain S. aureus ATCC 29213 and the hyper-permeable E. coli 901C were used to determine the ability of the PBP compounds to inhibit bacterial growth. Briefly, cryo-preserved bacterial cultures of clinical strains are streaked for isolation on appropriate agar medium, in this case Mueller Hinton II agar. Following incubation to allow formation of colonies these plates are sealed with parafilm and stored refrigerated for up to two weeks. For preparation of assay inocula and to ensure low variability, at least 5 colonies are picked from the agar plates with an inoculating loop and aseptically transferred to a culture tube containing 3 mL of Mueller-Hinton Broth (supplemented with divalent cations to required levels based on Manufacturers' certification). The broth culture is grown for 3-5 hours at 37° C. with shaking at 200 rpm. […] After the dilution plates are set up the growing cultures are then diluted in a cuvette containing MH II broth and the optical density is measured at 600 nm. […] The MIC is read visually as the lowest concentration well with no bacterial growth. […]

Test [4] deals with E. coli DH5a harboring SHV-5. As to the kind of experiment: Broth microdilution MIC, engineered E. coli expressing SHV-5. As to conditions: Escherichia coli, read-out: MIC, β-lactamase SHV. The class given is cell-based. The procedure: as §2, §3
In test [5] the target is T1, E. coli PBP2 (Escherichia coli, UniProt P0AD65).
T1 construct: 100 μg's of total membrane protein extracts containing PBPs; endogenous in cells; host or cells: Escherichia coli K12, membrane protein fraction
T1 sequence (P0AD65 whole entry): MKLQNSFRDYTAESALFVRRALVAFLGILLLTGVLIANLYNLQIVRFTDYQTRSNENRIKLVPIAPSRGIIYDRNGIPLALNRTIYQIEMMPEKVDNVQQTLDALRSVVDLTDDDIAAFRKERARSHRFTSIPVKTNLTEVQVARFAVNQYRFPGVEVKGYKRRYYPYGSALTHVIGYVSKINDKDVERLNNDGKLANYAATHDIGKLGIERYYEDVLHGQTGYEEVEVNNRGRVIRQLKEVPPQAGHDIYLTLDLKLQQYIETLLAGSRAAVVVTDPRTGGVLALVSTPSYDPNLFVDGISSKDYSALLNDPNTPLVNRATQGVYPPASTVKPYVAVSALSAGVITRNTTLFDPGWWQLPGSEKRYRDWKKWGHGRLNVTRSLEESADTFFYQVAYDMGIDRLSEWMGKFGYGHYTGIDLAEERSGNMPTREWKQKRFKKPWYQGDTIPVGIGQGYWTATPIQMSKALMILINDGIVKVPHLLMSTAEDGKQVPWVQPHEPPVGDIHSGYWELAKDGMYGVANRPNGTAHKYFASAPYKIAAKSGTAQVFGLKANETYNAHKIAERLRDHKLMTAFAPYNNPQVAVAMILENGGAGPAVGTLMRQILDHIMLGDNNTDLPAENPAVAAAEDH
As to the kind of experiment: Bocillin FL competition binding assay, PBP2. The note with it: 15 min pre-incubation. Further details: species or system Escherichia coli K12. The method in brief:
(§4)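 E. coli K12 membrane extracts (100 µg protein) pre-incubated 15 min with compound (0.005–2,480 µg/mL) in pH 7 phosphate/350 mM NaCl, then labelled with Bocillin FL 30 min at 35°C; SDS-PAGE fluorescence (ex 450/em 520 nm), μg/mL reported. PBP1a/1b unresolved, reported combined.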

The test system of test [6] is E. coli DH5a harboring NDM-1. As to the kind of experiment: Broth microdilution MIC, engineered E. coli expressing NDM-1. As to conditions: Escherichia coli, read-out: MIC, β-lactamase NDM. The format is cell-based. As to the method:
as §2, §3

The test system of test [7] is engineered strains of Escherichia coli harboring select single β-lactamases. As to the kind of experiment: MIC across the panel of engineered E. coli strains harboring select single β-lactamases. The class given is cell-based. As to conditions: strains expressing β-lactamases compared with control strain, result in words. The procedure: To determine if test compounds were affected by various known β-lactamases, the inhibition of the growth of engineered strains of Escherichia coli harboring select single β-lactamases were tested. These strains were constructed by cloning the gene encoding the particular β-lactamase into the NdeI and BamHI restriction endonuclease sites of plasmid pLBII, placing the gene(s) under the control of the Lac promoter.

In test [8] the test system is S. aureus ATCC 29213. As to the kind of experiment: Broth microdilution MIC assay, S. aureus. The class given is cell-based. The note with it: Staphylococcus aureus, ATCC29213; broth microdilution, 16-20 hours at 37° C.; read-out: S. aureus 29213 MIC. In short, it runs like this:
as §1

The target in test [9] is T2, E. coli PBP3 (Escherichia coli, UniProt P0AD68).
T2 construct: 100 μg's of total membrane protein extracts containing PBPs; endogenous in cells; host or cells: Escherichia coli K12, membrane protein fraction
T2 sequence (P0AD68 1-577): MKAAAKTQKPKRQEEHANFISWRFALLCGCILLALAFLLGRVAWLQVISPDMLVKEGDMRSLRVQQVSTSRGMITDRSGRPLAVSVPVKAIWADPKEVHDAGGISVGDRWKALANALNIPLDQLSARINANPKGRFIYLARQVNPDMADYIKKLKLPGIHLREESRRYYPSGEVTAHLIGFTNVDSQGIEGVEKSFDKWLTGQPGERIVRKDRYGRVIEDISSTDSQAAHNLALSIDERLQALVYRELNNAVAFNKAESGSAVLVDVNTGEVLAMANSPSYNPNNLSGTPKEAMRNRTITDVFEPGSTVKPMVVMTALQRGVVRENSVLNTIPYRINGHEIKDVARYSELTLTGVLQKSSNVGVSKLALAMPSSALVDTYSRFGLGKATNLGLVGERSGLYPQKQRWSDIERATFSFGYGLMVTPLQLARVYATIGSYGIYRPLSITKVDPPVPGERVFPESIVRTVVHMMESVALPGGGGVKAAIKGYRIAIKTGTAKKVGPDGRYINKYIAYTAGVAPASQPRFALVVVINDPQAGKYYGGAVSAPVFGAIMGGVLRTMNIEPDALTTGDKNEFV
As to the kind of experiment: Bocillin FL competition binding assay, PBP3. Further details: species or system Escherichia coli K12. As to conditions: 15 min pre-incubation. The method in brief:
as §4

The subject of test [10] is E. coli DH5a harboring IMP-18. Nature of the test: Broth microdilution MIC, engineered E. coli expressing IMP-18. The format is cell-based. The note with it: Escherichia coli, read-out: MIC, β-lactamase IMP. As to the method:
as §2, §3

In test [11] the test system is E. coli DH5a harboring TEM-24. Nature of the test: Broth microdilution MIC, engineered E. coli expressing TEM-24. The class given is cell-based. As to conditions: Escherichia coli, read-out: MIC, β-lactamase TEM. As to the method:
as §2, §3

In test [12] the test system is E. coli DH5a harboring OXA-48. As to the kind of experiment: Broth microdilution MIC, engineered E. coli expressing OXA-48. The class given is cell-based. The note with it: Escherichia coli, read-out: MIC, β-lactamase OXA. The procedure:
as §2, §3

The subject of test [13] is E. coli DH5a harboring CTX-M15. As to the kind of experiment: Broth microdilution MIC, engineered E. coli expressing CTX-M15. The format is cell-based. The note with it: Escherichia coli, read-out: MIC, β-lactamase CTXM. The procedure:
as §2, §3

For test [14], the system named is E. coli K12 PBP1a/b. As to the kind of experiment: Bocillin FL competition binding assay, PBP1a/1b combined. Further details: species or system Escherichia coli K12. The note with it: 15 min pre-incubation, PBP 1a/1b combined. In short, it runs like this:
as §4

The subject of test [15] is E. coli DH5a harboring VIM-2. Nature of the test: Broth microdilution MIC, engineered E. coli expressing VIM-2. The class given is cell-based. The note with it: Escherichia coli, read-out: MIC, β-lactamase VIM. The procedure:
as §2, §3

In test [16] the target is T3, E. coli K12 PBP1b (Escherichia coli, UniProt P02919).
T3 construct: endogenous in cells; host or cells: Escherichia coli K12, membrane protein fraction
T3 sequence (P02919 whole entry): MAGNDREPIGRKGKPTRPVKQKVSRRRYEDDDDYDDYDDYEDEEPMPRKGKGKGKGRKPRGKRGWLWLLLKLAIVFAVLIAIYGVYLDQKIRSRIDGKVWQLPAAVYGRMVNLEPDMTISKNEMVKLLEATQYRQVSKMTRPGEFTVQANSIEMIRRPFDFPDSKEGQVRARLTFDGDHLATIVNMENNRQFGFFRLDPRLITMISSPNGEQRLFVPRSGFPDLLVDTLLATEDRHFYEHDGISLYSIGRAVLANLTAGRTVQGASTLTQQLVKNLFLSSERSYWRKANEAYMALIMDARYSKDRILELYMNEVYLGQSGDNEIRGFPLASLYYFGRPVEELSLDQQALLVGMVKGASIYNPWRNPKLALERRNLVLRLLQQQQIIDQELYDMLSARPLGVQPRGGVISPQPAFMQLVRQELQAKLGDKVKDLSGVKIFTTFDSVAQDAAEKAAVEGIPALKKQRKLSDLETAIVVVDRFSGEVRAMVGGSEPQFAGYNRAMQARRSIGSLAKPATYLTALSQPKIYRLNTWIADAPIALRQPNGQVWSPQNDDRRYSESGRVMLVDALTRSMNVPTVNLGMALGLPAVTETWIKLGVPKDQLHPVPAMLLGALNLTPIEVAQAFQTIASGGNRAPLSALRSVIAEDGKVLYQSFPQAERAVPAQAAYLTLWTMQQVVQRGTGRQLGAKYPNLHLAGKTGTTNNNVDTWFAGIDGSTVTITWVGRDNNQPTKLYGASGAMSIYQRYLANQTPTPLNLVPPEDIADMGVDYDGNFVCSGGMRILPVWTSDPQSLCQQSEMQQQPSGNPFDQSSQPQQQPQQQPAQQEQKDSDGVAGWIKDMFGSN
Nature of the test: Competition binding assay using Bodipy-FL boronic acid probe (Example 125). As to conditions: Bodipy-FL boronic acid probe (Example 125) 30 μM, 10 minutes pre-incubation, 10 minutes reaction. As to the method: Penicillin binding proteins were isolated from Escherichia coli K12 by growth of Escherichia coli K12 from a single colony in 4 L of Luria-Bertani (LB) broth at 35° C. and 250 rpm to an OD600 nm of 0.5. The cells were harvested by centrifugation at 7,000×g for 10 min. at 4° C. Cells were resuspended and washed in 50 mM potassium phosphate pH 7.5. The cells were re-suspended in sonication buffer [50 mM Tris-HCl pH 7.5, 1 mM MgCl2, 1 mM beta-mercaptoethanol, and 5 μg/mL DNAse I] and sonicated by 4 passes of 30 seconds at 45 W on ice. The sample was clarified by centrifugation at 3,000×g to remove cell debris and unbroken cells and supernatant containing the membrane proteins was retained. The membrane proteins including the PBPs were further purified from soluble constituents by an ultracentrifugation step at 100,000×g for 30 min. at 4° C. The membrane proteins are washed twice with 10 mM sodium phosphate pH 7, resuspended in a volume of 5 mL, quantitated by BCA assay, adjusted to […] and frozen at −80° C. until use.
The adapted Bocillin FL competition binding method described herein incorporates a 15 min. pre-incubation of test compound with isolated PBPs to attempt to balance the difference in mechanism of inhibition between beta-lactams (largely irreversible covalent bond to active site Serine) and the boron-containing PBP inhibitor test compounds (reversible covalent bond to active site Serine). Briefly, 50 μL reactions consisted of 100 μg's of total membrane protein extracts containing PBPs incubated with a dilution series of test compound ranging from 0.005 μg/mL to 2,480 μg/mL in 10 mM sodium phosphate pH7 containing 350 mM NaCl. Thirty minute reactions at 35° C. were initiated by addition of […] Bocillin FL, quenched by addition of SDS-PAGE loading buffer containing sodium dodecyl sulfate (SDS) and heated for 15 minutes at 95° C. to denature proteins in preparation for SDS-polyacrylamide gel electrophoresis. The Bocillin FL labeled PBPs are then separated by SDS-PAGE in Novex NuPage 10% Bis-Tris pre-cast gels (Invitrogen). The SDS-PAGE gel, post-electrophoresis, is then washed in water to remove excess SDS for 10 minutes at room temperature and placed on the scanning bed of a GE Healthcare/Amersham Biosciences Storm 860 fluorescence scanner. The excitation wavelength is in the blue spectrum at 450 nm and the emission at 520 nm is captured by the instrument. Effective PBP inhibitors are detected by a reduction in Bocillin FL labeling of the particular PBP over the dose range of test compound in a dose-responsive manner. High molecular weight PBP 1a/1b are not resolved by these gels, thus we report HMW PBP binding results in μg/mL for PBPs 1a/1b combined as well as for PBP2 and PBP3.
To determine the ability of boronic acid-based test PBP inhibitors to bind Penicillin Binding Proteins (PBPs), a competition binding assay using a Bodipy-FL-labeled boronic acid PBP inhibitor (Example 125) was adapted from the classical method used to assess PBP potency of beta-lactams using Bocillin-FL (fluorescently-labeled penicillin V). The method is identical to that described in Example I for the Bocillin-FL competition binding assay with the following exceptions, the Bodipy-FL boronic acid probe (Example 125) is used at a final concentration of 30 μM, pre-incubation time of test compound with PBP enzymes is 10 minutes and reaction time is set for 10 minutes and reactions are prepared for SDS-PAGE analysis by simply adding SDS-containing loading buffer. Representative results are shown in Table 5, where A represents a potency of >1000 μg/mL, B represents a potency between 64 and 1000 μg/mL inclusive, and C represents a potency of <64 μg/mL. NT=Not Tested.

On to `CO/N=C(\C(=O)N[C@H]1Cc2cccc(C(=O)O)c2OB1O)c1csc(N)n1` [Example 1, (R,Z)-3-(2-(2-aminothiazol-4-yl)-2-(methoxyimino)acetamido)-2-hydroxy-3,4-dihydro-2H-benzo[e][1,2]oxaborinine-8-carboxylic Acid], for which the MIC in test [1] is less than 64 µg/mL; in [2], 8 µg/mL; in test [3], 4 µg/mL; in [4], 8 µg/mL; in test [6], 8 µg/mL; in test [8], 64 to 128 µg/mL. Besides, the MIC in test [10], in test [11], in test [12], in [13] and in [15] was 8 µg/mL each time. Moreover, the “E. coli PBP2 Potency” value in test [5] was “A (A represents a potency of >1000 μg/mL)”. Besides, the “Effect of expressed β-lactamase on MIC” value in test [7] was “the same MIC values in strains regardless of the β-lactamase expressed”. The “E. coli PBP3 Potency” value in test [9] was “C (C represents a potency of <64 μg/mL)”. For the same compound, the “E. coli K12 PBP1a/b Potency” value in [14] is reported as “C (C represents a potency of <64 μg/mL)”.

Consider `C[C@H]1[C@H](NC(=O)/C(=N\OC(C)(C)C(=O)O)c2csc(N)n2)C(=O)N1S(=O)(=O)O` [Aztreonam, reference compound], for which the MIC in [2] was found to be 0.06 µg/mL; in test [4], 8 µg/mL; in test [6] it was 0.06 µg/mL; in test [10] it was 0.06 µg/mL; in test [11] it was 1 µg/mL; in [12], 0.125 µg/mL. The MIC turned out to be 32 µg/mL in [13] and 0.06 µg/mL in test [15]. Also, the “Effect of expressed β-lactamase on MIC” value in test [7] is “weaker MICs in those strains”.

On to `Nc1nc(/C(=N/OCC2CCNCC2)C(=O)N[C@H]2Cc3cccc(C(=O)O)c3OB2O)cs1` [Example 52, (R,Z)-3-(2-(2-aminothiazol-4-yl)-2-((piperidin-4-ylmethoxy)imino)acetamido)-2-hydroxy-3,4-dihydro-2H-benzo[e][1,2]oxaborinine-8-carboxylic Acid], for which the MIC was less than 64 µg/mL in [1] and greater than 128 µg/mL in [8]. Further, the “E. coli PBP2 Potency” value in test [5] is “A (A represents a potency of >1000 μg/mL)”. The “E. coli PBP3 Potency” value in test [9] is on record as “A (A represents a potency of >1000 μg/mL)”. Besides, in test [16], the “E. coli K12 PBP1b Potency” value is “B (B represents a potency between 64 and 1000 μg/mL inclusive)”. In addition, the “E. coli K12 PBP1a/b Potency” value in [14] is given as “A (A represents a potency of >1000 μg/mL)”.

For the origin of these results see patent US11267826B2, “Penicillin-binding protein inhibitors” (priority 2017, dated 2022).
